US7741334B2, “Low dose therapy for treating viral infections” (priority 2004, dated 2010)

Columns and labels:
[1] = Therapeutic window from PK versus PD relationship; conditions: human
Source text: Pharmacokinetics and pharmacodynamics modeling was used to explore potential dosing regimens for Elvucitabine. A pharmacokinetics (PK) model was developed to describe both the plasma concentration-time data and excreted urinary amounts from previously completed studies with Elvucitabine. With the PK model in hand and pharmacodynamics (PD) results of previously completed studies, the relationship of PK and PD from an efficacy and toxicity standpoint is obtained. From the results of the PK and PD studies, a therapeutic window of Elvucitabine is defined and simulated dosing regimens ranging from 5 mg BID to 100 mg Q1 week were explored using ADAPT II® Pharmacokinetic and Pharmacodynamic Systems Analysis Software. From the simulated dosing regimen results, ten dosing regimens were identified allowing maintenance therapy with Elvucitabine at levels effective against both HIV and HBV while avoiding bone toxicity.
From the foregoing results, a therapeutic window of Elvucitabine was identified. It has been determined that a 5 mg QD dose is effective for HBV and, therefore, a plasma AUCss/24 of 300 μg·h/L was identified as the efficacy threshold.

[2] = Population PK analysis of plasma and urine data, study ACH443-011, 1×20 mg tablet PO; conditions: human, in vivo
Experimental: The PK model created included an individual compartmental PK analysis using ADAPT-II® and Population PK analysis using an iterative two-stage population modeling technique (IT2S®) of plasma and urine data from a study of healthy subjects, n=29, 1×20 mg tablet PO (ACH443-011). FIG. 1 illustrates the PK model of Elvucitabine according to a three compartment model characterized by two absorption peaks, each associated with a lag time and a first order absorption rate constant.
FIG. 2 illustrates an example of individual fit using a Population PK analysis (IT2S).

Nc1nc(=O)n([C@H]2C=C[C@@H](CO)O2)cc1F [Elvucitabine, 4-amino-5-fluoro-1-((2R,5S)-5-(hydroxymethyl)-2,5-dihydrofuran-2-yl)pyrimidin-2(1H)-one]
Cmax [1]: > 40 ng/mL | central compartment (plasma) Cmin at onset of toxicity [1]: ≥ 23 µg/L | apparent volume of distribution (VSS) [2]: 1600 L | fraction unbound [2]: 0.396
